The source of these data is patent publication US20090270361A1, “Substituted pyrazole derivatives and use thereof” (Takeda Pharmaceutical Company Limited, priority 2008, published 2009).

In assay [1] the target is T1, LNCaP type mutant androgen receptor (AR) (Homo sapiens, UniProt P10275, T878A).
T1 sequence (P10275 1-920 T878A): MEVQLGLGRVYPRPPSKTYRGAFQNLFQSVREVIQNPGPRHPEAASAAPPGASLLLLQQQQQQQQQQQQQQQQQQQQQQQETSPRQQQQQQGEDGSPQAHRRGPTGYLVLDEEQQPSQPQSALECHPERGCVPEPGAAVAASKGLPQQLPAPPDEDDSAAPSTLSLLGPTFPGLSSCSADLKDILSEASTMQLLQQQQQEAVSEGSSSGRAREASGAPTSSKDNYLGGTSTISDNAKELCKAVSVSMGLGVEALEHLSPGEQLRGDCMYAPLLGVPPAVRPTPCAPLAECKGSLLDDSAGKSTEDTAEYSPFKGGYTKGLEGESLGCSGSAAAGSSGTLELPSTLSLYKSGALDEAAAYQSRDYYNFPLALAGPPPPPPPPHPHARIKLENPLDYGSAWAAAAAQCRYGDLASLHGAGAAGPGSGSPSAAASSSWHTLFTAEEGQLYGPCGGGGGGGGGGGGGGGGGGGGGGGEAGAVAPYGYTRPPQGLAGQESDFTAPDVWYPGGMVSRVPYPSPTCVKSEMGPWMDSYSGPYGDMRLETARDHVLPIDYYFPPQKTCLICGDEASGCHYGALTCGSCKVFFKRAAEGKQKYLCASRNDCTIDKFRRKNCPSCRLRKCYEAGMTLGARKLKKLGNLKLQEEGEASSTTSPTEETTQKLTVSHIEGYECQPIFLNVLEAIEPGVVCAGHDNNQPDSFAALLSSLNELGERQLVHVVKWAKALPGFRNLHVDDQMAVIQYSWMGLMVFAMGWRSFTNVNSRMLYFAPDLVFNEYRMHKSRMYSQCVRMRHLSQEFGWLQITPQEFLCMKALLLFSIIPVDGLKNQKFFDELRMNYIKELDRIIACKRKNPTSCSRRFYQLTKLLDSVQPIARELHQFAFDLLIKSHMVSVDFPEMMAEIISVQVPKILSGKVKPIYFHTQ
As to the kind of experiment: AR-binding inhibition test (LNCaP type), radio-labeled Mibolerone displacement. As to conditions: read-out: inhibition rate, LNCaP type. Here is the method:
(§1) AR-Binding Inhibition Test (Wild Type and LNCaP Type)
(§2) To a solution of wild type or LNCaP type mutant androgen receptor (AR) was added 3 nM radio-labeled Mibolerone and final concentration 1 μM of the compound. The mixture was incubated at 4° C. for 3 hours, and B (Bound) and F (Free) Mibolerones were separated by the dextran/charcoal method. The label count of B was measured and the inhibition rate of the compound was calculated.

The target in assay [2] is T2, wild type androgen receptor (AR) (Homo sapiens, UniProt P10275).
T2 sequence (P10275 1-920): T1 sequence (P10275 1-920 T878A) with A878T
As to the kind of experiment: AR-binding inhibition test (wild type), radio-labeled Mibolerone displacement. As to conditions: read-out: inhibition rate, wild type. Here is the method: as §1, §2

For another assay, the target named is T3, mutant AR (W741C) (Homo sapiens, UniProt P10275, W742C).
T3 construct: expressed in transfected cells; host or cells: Cos-7
T3 sequence (P10275 1-920 W742C): T1 sequence (P10275 1-920 T878A) with W742C, A878T
As to the kind of experiment: AR transcription inhibition test (luciferase reporter in Cos-7 cells). The class given is cell-based. The note with it: compound 1 μM; DHT 0.1 μM; Cos-7 cells cotransfected with mutant AR (W741C) and androgen responsive luciferase reporter; 24 hr; relative to control (0.1 μM DHT); read-out: AR transcription inhibitory rate (%). The protocol: AR Transcription Inhibition Test
Cos-7 cells (5,000,000 cells) were inoculated to a flask, and incubated in a culture medium (DMEM +10% Dextran Charcoal (DCC)-Fetal Bovine Serum (FBS) and 2 mM glutamine) for 24 hours. Then, a vector DNA harboring mutant AR (W741C) and a vector DNA containing a luciferase gene bound at the downstream of an androgen responsive promoter were cotransfected by a liposome method. After 4 hr, the medium was changed and, after culture for 3 hr, DHT (dihydrotestosterone) at the final concentration of 0.1 μM and the compound at the final concentration of 1 μM were added. After further culture for 24 hr, the luciferase activity was measured, and the AR transcription inhibitory activity of the compound was examined.
In general terms: Reporter assays use an easily measured gene product as a stand-in for the process of interest.

The subject of assay [3] is Human prostate cancer cells LNCaP-FGC. As to the kind of experiment: Prostate specific antigen (PSA) production inhibition test in prostate cancer cells. It counts as cell-based. The note with it: for inhibition at 1 µM: Homo sapiens, 72 h, read-out: PSA production inhibitory rate (%).

Substitutions are numbered along the chain they refer to.

As to `Cc1nn(-c2ccc(C#N)c(Cl)c2)c(C)c1Cc1ccc(C(=O)NCC(O)CO)cc1` (racemic) [Example 321, (±)-4-{[1-(3-chloro-4-cyanophenyl)-3,5-dimethyl-1H-pyrazol-4-yl]methyl}-N-(2,3-dihydroxypropyl)benzamide], the inhibition at 1 µM in assay [1] was determined as 84%; in assay [2], 78%; on mutant AR (W741C), 38%; in assay [3], 91%.
As to `Cc1nn(-c2ccc(C#N)c(Cl)c2)c(C)c1Cc1ccc(C(=O)N(C)CCO)cc1` [Example 296, 4-{[1-(3-chloro-4-cyanophenyl)-3,5-dimethyl-1H-pyrazol-4-yl]methyl}-N-(2-hydroxyethyl)-N-methylbenzamide], the inhibition at 1 µM in assay [1] was found to be 64%; in assay [2], 52%; at mutant AR (W741C), 39%; in assay [3], 79%.
The matching figures for `Cc1nn(-c2ccc(C#N)c(Cl)c2)c(C)c1Cc1ccc(C(=O)N2CC[C@H](O)C2)cc1` [Example 332, 2-chloro-4-[4-(4-{[(3S)-3-hydroxypyrrolidin-1-yl]carbonyl}benzyl)-3,5-dimethyl-1H-pyrazol-1-yl]benzonitrile]: 78%, 72%, 22% and 84%.
The matching figures for `Cc1nn(-c2ccc(C#N)c(Cl)c2)c(C)c1Cc1ccc(-c2nnc(C(N)=O)o2)cc1` [Example 350, 5-(4-{[1-(3-chloro-4-cyanophenyl)-3,5-dimethyl-1H-pyrazol-4-yl]methyl}phenyl)-1,3,4-oxadiazole-2-carboxamide]: 92%, 87%, 93% and 101%.
Regarding `Cc1nn(-c2ccc(C#N)c(Cl)c2)c(C)c1Cc1ccc(C(=O)NC(C)(C)C)cc1` [Example 351, N-tert-butyl-4-{[1-(3-chloro-4-cyanophenyl)-3,5-dimethyl-1H-pyrazol-4-yl]methyl}benzamide], the inhibition at 1 µM in assay [3] is 109%.
With `Cc1nn(-c2ccc(C#N)c(Cl)c2)c(C)c1Cc1ccc(C(=O)N2CCC(O)CC2)cc1` [Example 355, 2-chloro-4-(4-{4-[(4-hydroxypiperidin-1-yl)carbonyl]benzyl}-3,5-dimethyl-1H-pyrazol-1-yl)benzonitrile], the inhibition at 1 µM in assay [1] was 51%; in assay [2], 47%; on mutant AR (W741C), 23%; in assay [3], 117%.
`Cc1nn(-c2ccc(C#N)c(Cl)c2)c(C)c1Cc1ccc(C(=O)NCC(C)(C)O)cc1` [Example 356, 4-{[1-(3-chloro-4-cyanophenyl)-3,5-dimethyl-1H-pyrazol-4-yl]methyl}-N-(2-hydroxy-2-methylpropyl)benzamide]: in assay [3], the inhibition at 1 µM is 98%.
The same measure, in the same setting: next, `Cc1nn(-c2ccc(C#N)c(Cl)c2)c(C)c1Oc1ccc(C(=O)N2CCOCC2)cc1` [Example 357, 2-chloro-4-{3,5-dimethyl-4-[4-(morpholin-4-ylcarbonyl)phenoxy]-1H-pyrazol-1-yl}benzonitrile]: 100%.
Regarding `Cc1nn(-c2ccc(C#N)c(Cl)c2)c(C)c1Cc1ccc(C(=O)N2CC(O)C2)cc1` [Example 363, 2-chloro-4-(4-{4-[(3-hydroxyazetidin-1-yl)carbonyl]benzyl}-3,5-dimethyl-1H-pyrazol-1-yl)benzonitrile], the inhibition at 1 µM in assay [1] came to 79%; in assay [2], 73%; at mutant AR (W741C), 23%; in assay [3], 100%.
With `Cc1nn(-c2ccc(C#N)c(Cl)c2)c(C)c1Oc1ccc(NC(=O)C(C)(C)C)cn1` [Example 455, N-(6-{[1-(3-chloro-4-cyanophenyl)-3,5-dimethyl-1H-pyrazol-4-yl]oxy}pyridin-3-yl)-2,2-dimethylpropanamide], in assay [3], the inhibition at 1 µM was found to be 108%.
On to `CC(O)(CS(=O)(=O)c1ccc(F)cc1)C(=O)Nc1ccc(C#N)c(C(F)(F)F)c1` (centres unmarked) [bicartamide, reference compound], for which, in assay [3] (1 µM), the “PSA production inhibitory rate (%)” value is listed as 75%.
